Experimental data as given in PubChem BioAssay (NCI).
Values joined by “and” are separate entries in the source; they are usually repeats but may differ in a detail not shown here. Identical values can stand only once.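 Dose response: 5 concentrations. Exposure: 48 h. Format: 96-well plates. Endpoint: linear interpolation; highest concentration if not reached. GI50 is the concentration that inhibits growth by half. TGI: total growth inhibition.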

Assays:
Experiment in all cases: inhibition of tumour cell growth, NCI panel, 48 h
[1] = test system: HS 578T breast
[2] = test system: HCT-116 colon
[3] = test system: K-562 leukemia
[4] = test system: OVCAR-4 ovarian
[5] = test system: KM12 colon
[6] = test system: CCRF-CEM leukemia
[7] = test system: U251 CNS
[8] = test system: MCF7 breast
[9] = test system: HCT-15 colon
[10] = test system: SR leukemia

Structure (SMILES)	GI50 [1]	TGI [1]	GI50 [2]	TGI [2]	GI50 [3]	TGI [3]	GI50 [4]	TGI [4]	GI50 [5]	TGI [5]	GI50 [6]	TGI [6]	GI50 [7]	TGI [7]	GI50 [8]	TGI [8]	GI50 [9]	TGI [9]	TGI [10]	GI50 [10]
O=C(CCSc1ccnc2c(C(F)(F)F)cccc12)N/N=C/c1cc(Cl)c(Cl)cc1Cl	23.9 µM	49.8 µM	18.5 µM	32.5 µM	39.6 µM	> 100 µM	25.4 µM	64.2 µM	29.7 µM	77.9 µM	25.4 µM	62.1 µM	18.4 µM	32.4 µM	22.9 µM	44 µM	20 µM	36.5 µM	–	–
CCc1ccc2nccc(NCCCN(C)C)c2c1[N+](=O)[O-]	–	> 100 µM	–	> 100 µM	–	> 100 µM	–	> 100 µM	–	> 100 µM	–	> 100 µM	–	> 100 µM	–	> 100 µM	–	–	> 100 µM	–
CN(C)CCSCCO	–	> 100 µM	–	> 100 µM	–	> 100 µM	–	> 100 µM	–	> 100 µM	–	–	–	> 100 µM	–	> 100 µM	–	> 100 µM	> 100 µM	–
Clc1cc(-c2ccccc2)nc2ccccc12	–	> 100 µM	–	> 100 µM	–	> 100 µM	–	62.3 µM	–	77.5 µM	–	54.1 µM	–	> 100 µM	–	> 100 µM	–	36.5 µM	–	–
Cc1ccc(Nc2cc(C)nc(NCCCNc3ccnc4cc(Cl)ccc34)n2)cc1	–	–	1.09 µM	2.81 µM	–	–	1.24 µM	2.82 µM	1.69 µM	3.26 µM	0.945 µM	3.79 µM	1.32 µM	2.67 µM	1.16 µM	2.72 µM	0.767 µM	2.21 µM	–	–
COc1ccc2c(CCNC(=O)/C=C/c3ccccc3)c(C(C)=O)[nH]c2c1[N+](=O)[O-]	–	–	–	87.2 µM	–	> 100 µM	–	> 100 µM	–	> 100 µM	–	> 100 µM	–	> 100 µM	–	–	–	> 100 µM	> 100 µM	–
CC(C)C[C@H](NC(=O)[C@H](Cc1cccc2ccccc12)NS(=O)(=O)c1cccc2cccnc12)B(O)O	0.00137 µM	0.017 µM	0.00101 µM	0.0203 µM and < 0.0351 µM	0.0094 µM	0.163 µM	–	0.173 µM	0.0178 µM	0.114 µM and 0.179 µM	–	–	0.011 µM	1.45 µM	0.000525 µM	> 30.5 µM	0.13 µM	0.403 µM	0.00812 µM	0.000169 µM
FC(F)(F)c1cccc2c(SCCc3n[nH]c(=S)o3)ccnc12	30.1 µM	> 100 µM	44.4 µM	> 100 µM	47.4 µM	> 100 µM	32.5 µM	> 100 µM	52.7 µM	> 100 µM	38.6 µM	> 100 µM	53.3 µM	> 100 µM	41.6 µM	> 100 µM	66.2 µM	> 100 µM	–	–
COc1cc(/C=C\c2ccc(Br)cc2)cc(OC)c1OC	–	–	–	> 100 µM	–	36.8 µM	–	64.1 µM	–	> 100 µM	–	13.8 µM	–	0.012 µM	–	–	–	34.7 µM	10.6 µM	–
Nc1cc(S(N)(=O)=O)ccc1SSc1ccc(S(N)(=O)=O)cc1N	–	> 100 µM	–	> 100 µM	–	> 100 µM	–	> 100 µM	–	> 100 µM	–	–	–	> 100 µM	–	> 100 µM	–	> 100 µM	> 100 µM	–
COc1c(Cl)ccc2c(-c3nc4cc(Cl)c(F)cc4s3)cc(=O)oc12	26.8 µM	> 100 µM	14.1 µM	> 61.6 µM	5.42 µM	> 100 µM	12.9 µM	70.6 µM	4.06 µM	22.1 µM	–	–	7.57 µM	44.7 µM	9.13 µM	> 79 µM	11.7 µM	51 µM	8.23 µM	2.2 µM
Fc1ccc2c(c1)C1=C(CO2)C(c2ccc(Cl)cc2)NC(=S)N1 (stereo unspecified)	–	–	–	–	30.4 µM	> 100 µM	51.9 µM	> 100 µM	17.8 µM	38.9 µM	–	–	18.7 µM	63.1 µM	18.1 µM	42.2 µM	92.6 µM	> 100 µM	50.3 µM	13 µM
O=C(Nc1nc2ccc([N+](=O)[O-])cc2s1)C(=O)C(C(=O)c1ccncc1)C1OC(=O)c2ccccc21 (stereo unspecified)	–	–	–	> 100 µM	–	> 100 µM	–	> 100 µM	–	> 100 µM	–	> 100 µM	–	> 100 µM	–	–	–	> 100 µM	> 100 µM	–
CCCCCCCCCCCCCCCCCCOc1ccccc1CC(=O)NCC[N+](C)(C)C	4.26 µM	> 100 µM	7.58 µM	> 100 µM	3.2 µM	> 100 µM	3.11 µM	30 µM	–	–	–	–	–	–	3.77 µM	34.9 µM	17 µM	57.4 µM	> 100 µM	2.71 µM
CSc1ccc(SC2c3ccc(C)cc3Oc3nc(N)c(C#N)c(N)c32)cc1 (stereo unspecified)	2.19 µM	5.53 µM	1.92 µM	3.65 µM	2.96 µM	9.91 µM	1.59 µM	3.01 µM	1.96 µM	3.65 µM	–	–	1.69 µM	3.05 µM	1.84 µM	4.34 µM	1.65 µM	3.18 µM	7.65 µM	2.54 µM
CCOC(=O)N1C(c2ccccc2)C=CC(c2ccccc2)N1C(=O)OCC (stereo unspecified)	–	–	–	> 100 µM	–	> 100 µM	–	> 100 µM	–	> 100 µM	–	> 100 µM	–	> 100 µM	–	–	–	> 100 µM	> 100 µM	–
Cc1cnccc1N=Nc1ccc(N(C)C)cc1	–	> 100 µM	–	> 100 µM	–	76.7 µM	–	61.2 µM	–	> 100 µM	–	> 100 µM	–	70.9 µM	–	35 µM	–	> 100 µM	–	–
CC1[C@@H]2CC=C3[C@H]4CCC5Cc6nc7c(nc6C[C@@]5(C)C4(O)CC(=O)[C@]32CO[C@]12OC(C)(C)CC2O)CC1CC[C@@H]2C3=C[C@H]4O[C@@]5(O[C@@](C)(CO)C[C@@H]5O)C(C)[C@@]4(O)[C@]3(C)[C@@H](O)CC2[C@]1(C)C7 (stereo partly specified)	–	–	–	0.105 µM and 0.846 µM	0.000149 µM and 0.00112 µM	0.021 µM and 0.0595 µM	–	> 3.6 µM	–	–	0.000126 µM and 0.000441 µM	0.00723 µM and 0.0638 µM	0.000112 µM and 0.00036 µM	0.0745 µM and 0.0955 µM	–	0.441 µM	0.00234 µM and 0.0127 µM	0.0737 µM and 0.589 µM	0.0821 µM	0.000155 µM
